Assay results: patent US12497394B2, “Fused-cyclic pyrazolone formamide compound and preparation method therefor, pharmaceutical composition and use thereof” (SHANGHAI INSTITUTE OF MATERIA MEDICA, CHINESE ACADEMY OF …, priority 2018, dated 2025)
“And” between values parts separate entries of the source, which are not always exact repeats. Equal values may be shown once. Read-outs that look alike come from different tables or passages of the source.

Assays:
EGFR = EGFR (Homo sapiens, UniProt P00533); experiment: Kinase profile screen: EGFR; format: biochemical; conditions: 50 nM
Description: (§1) Experimental Example 2: Study on the Selectivity of the Kinase Profile of the Compound Due to compound's potent inhibitory activity against AXL, we selected one of the compounds, DC621044, to screen 369 kinase profiles in order to investigate the compound's selectivity to the kinase profile.

[1] = target: receptor tyrosine kinase c-Met (Homo sapiens, UniProt P08581); experiment: In vitro c-Met kinase inhibitory activity; format: biochemical; conditions: two values per compound
Description: Experimental Example 3: Study of In Vitro c-Met Kinase Inhibitory Activity
Since the screening results of 369 kinase profiles of compound DC621044 has shown that the compound has a certain inhibitory activity on c-Met. We further screened some compounds for their inhibitory activity on c-Met kinase.

ASK1/MAP3K5 = ASK1/MAP3K5 (Homo sapiens, UniProt Q99683); experiment: Kinase profile screen: ASK1/MAP3K5; format: biochemical; conditions: 50 nM
Description: as §1

BaF3/TEL-AXL cells = experiment: Proliferation of BaF3/TEL-AXL cells; format: cell-based
Description: Experimental Example 4: Effect of the Compound on the Proliferation Effect of BaF3/TEL-AXL Cells
Based on the above-mentioned enzyme activity research results, we further explored the effect of the compound on cell proliferation mediated by receptor tyrosine kinase AXL.

TRKB = TRKB (Homo sapiens, UniProt Q16620); experiment: Kinase profile screen: TRKB; format: biochemical; conditions: 50 nM
Description: as §1

c-MET = c-MET (Homo sapiens, UniProt P08581); experiment: Kinase profile screen: c-MET; format: biochemical; conditions: 50 nM
Description: as §1

369 kinases = experiment: Selectivity of the kinase profile (369 kinases); format: biochemical; conditions: 369 kinases screened
Description: as §1

TYRO3/SKY = TYRO3/SKY (Homo sapiens, UniProt Q06418); experiment: Kinase profile screen: TYRO3/SKY; format: biochemical; conditions: 50 nM
Description: as §1

RON/MSTIR = RON/MSTIR (Homo sapiens, UniProt Q04912); experiment: Kinase profile screen: RON/MSTIR; format: biochemical; conditions: 50 nM
Description: as §1

FYN = FYN (Homo sapiens, UniProt P06241); experiment: Kinase profile screen: FYN; format: biochemical; conditions: 50 nM
Description: as §1

HIPK4 = HIPK4 (Homo sapiens, UniProt Q8NE63); experiment: Kinase profile screen: HIPK4; format: biochemical; conditions: 50 nM
Description: as §1

PLK4/SAK = PLK4/SAK (Homo sapiens, UniProt O00444); experiment: Kinase profile screen: PLK4/SAK; format: biochemical; conditions: 50 nM
Description: as §1

TRKA = TRKA (Homo sapiens, UniProt P04629); experiment: Kinase profile screen: TRKA; format: biochemical; conditions: 50 nM
Description: as §1

[2] = target: T1, receptor tyrosine kinase AXL (Homo sapiens, UniProt P30530); experiment: Enzyme activity of receptor tyrosine kinase AXL (ELISA); format: biochemical
T1 construct: 50 μL of AXL kinase domain recombinant protein diluted in reaction buffer was added to start the reaction; made in house; host or cells: insect cells (baculovirus expression system)
T1 sequence (P30530 536-807 limits assumed): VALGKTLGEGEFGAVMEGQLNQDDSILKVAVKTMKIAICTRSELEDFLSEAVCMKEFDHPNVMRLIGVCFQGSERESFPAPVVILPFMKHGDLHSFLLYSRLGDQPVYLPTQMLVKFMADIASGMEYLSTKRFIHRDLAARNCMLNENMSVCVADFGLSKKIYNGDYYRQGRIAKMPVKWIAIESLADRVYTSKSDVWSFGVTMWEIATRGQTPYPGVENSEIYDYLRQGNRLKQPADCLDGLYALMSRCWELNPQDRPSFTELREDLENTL
Summary of the method: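 AXL kinase domain recombinant protein reacted with ATP and compound (1% DMSO) in 50 mM HEPES pH 7.4, 50 mM MgCl2, 0.5 mM MnCl2, 0.2 mM Na3VO4, 1 mM DTT, 1 hour at 37° C. Phosphorylation detected by ELISA with HRP anti-mouse secondary, read at 490 nm; IC50 by four-parameter regression.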

TRKC = TRKC (Homo sapiens, UniProt Q16288); experiment: Kinase profile screen: TRKC; format: biochemical; conditions: 50 nM
Description: as §1

FLT3 = FLT3 (Homo sapiens, UniProt P36888); experiment: Kinase profile screen: FLT3; format: biochemical; conditions: 50 nM
Description: as §1

DDR1 = DDR1 (Homo sapiens, UniProt Q08345); experiment: Kinase profile screen: DDR1; format: biochemical; conditions: 50 nM
Description: as §1

Sequence of receptor tyrosine kinase c-Met (P08581 25-1390): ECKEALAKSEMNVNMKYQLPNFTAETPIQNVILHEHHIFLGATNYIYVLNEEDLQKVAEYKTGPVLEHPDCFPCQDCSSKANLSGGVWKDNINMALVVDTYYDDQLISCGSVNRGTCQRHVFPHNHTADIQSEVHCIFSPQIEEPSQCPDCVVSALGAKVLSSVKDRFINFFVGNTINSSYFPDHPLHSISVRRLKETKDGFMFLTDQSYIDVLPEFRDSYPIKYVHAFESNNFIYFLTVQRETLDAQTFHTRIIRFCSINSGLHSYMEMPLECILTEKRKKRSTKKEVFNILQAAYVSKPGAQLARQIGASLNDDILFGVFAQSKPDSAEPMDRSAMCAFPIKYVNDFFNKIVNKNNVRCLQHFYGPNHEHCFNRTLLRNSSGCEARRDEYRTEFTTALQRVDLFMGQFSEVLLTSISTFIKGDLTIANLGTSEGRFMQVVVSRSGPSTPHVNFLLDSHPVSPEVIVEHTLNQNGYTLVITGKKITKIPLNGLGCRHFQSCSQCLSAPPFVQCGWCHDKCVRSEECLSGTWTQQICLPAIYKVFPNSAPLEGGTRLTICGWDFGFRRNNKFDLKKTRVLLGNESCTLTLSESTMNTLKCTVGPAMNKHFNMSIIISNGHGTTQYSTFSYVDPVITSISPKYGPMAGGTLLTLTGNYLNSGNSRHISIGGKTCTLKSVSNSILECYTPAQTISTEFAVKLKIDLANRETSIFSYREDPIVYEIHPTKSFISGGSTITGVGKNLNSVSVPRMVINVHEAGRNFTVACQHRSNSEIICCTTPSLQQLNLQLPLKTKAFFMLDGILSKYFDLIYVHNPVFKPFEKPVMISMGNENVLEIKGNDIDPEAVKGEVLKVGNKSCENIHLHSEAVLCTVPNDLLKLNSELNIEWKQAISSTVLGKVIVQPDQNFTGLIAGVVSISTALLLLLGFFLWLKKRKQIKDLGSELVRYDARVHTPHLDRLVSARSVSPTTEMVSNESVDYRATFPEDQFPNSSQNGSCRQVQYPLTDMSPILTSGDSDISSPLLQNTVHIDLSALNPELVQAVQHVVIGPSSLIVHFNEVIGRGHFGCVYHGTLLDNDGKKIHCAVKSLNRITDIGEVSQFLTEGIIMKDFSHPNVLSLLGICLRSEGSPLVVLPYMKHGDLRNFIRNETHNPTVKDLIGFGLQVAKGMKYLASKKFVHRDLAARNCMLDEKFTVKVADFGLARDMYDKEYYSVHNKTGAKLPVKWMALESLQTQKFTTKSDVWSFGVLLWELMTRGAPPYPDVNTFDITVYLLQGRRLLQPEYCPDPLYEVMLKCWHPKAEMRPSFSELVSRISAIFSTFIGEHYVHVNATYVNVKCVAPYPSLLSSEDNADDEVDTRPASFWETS
Sequence of FYN (P06241 whole entry, species assumed): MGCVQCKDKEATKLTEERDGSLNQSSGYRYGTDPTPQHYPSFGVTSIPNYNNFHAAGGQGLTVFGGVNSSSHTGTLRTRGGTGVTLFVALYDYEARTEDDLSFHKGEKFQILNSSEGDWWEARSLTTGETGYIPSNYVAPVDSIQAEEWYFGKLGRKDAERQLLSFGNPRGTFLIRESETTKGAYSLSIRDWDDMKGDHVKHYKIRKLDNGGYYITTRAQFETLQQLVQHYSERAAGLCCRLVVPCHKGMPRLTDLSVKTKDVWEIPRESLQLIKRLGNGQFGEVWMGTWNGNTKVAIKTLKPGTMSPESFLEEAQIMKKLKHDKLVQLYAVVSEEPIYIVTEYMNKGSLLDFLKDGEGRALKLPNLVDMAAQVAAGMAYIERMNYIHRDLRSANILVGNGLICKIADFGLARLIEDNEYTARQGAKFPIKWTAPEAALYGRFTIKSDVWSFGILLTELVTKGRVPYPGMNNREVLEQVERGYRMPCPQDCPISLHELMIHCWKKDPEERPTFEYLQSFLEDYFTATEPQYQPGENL
Sequence of PLK4/SAK (O00444 whole entry): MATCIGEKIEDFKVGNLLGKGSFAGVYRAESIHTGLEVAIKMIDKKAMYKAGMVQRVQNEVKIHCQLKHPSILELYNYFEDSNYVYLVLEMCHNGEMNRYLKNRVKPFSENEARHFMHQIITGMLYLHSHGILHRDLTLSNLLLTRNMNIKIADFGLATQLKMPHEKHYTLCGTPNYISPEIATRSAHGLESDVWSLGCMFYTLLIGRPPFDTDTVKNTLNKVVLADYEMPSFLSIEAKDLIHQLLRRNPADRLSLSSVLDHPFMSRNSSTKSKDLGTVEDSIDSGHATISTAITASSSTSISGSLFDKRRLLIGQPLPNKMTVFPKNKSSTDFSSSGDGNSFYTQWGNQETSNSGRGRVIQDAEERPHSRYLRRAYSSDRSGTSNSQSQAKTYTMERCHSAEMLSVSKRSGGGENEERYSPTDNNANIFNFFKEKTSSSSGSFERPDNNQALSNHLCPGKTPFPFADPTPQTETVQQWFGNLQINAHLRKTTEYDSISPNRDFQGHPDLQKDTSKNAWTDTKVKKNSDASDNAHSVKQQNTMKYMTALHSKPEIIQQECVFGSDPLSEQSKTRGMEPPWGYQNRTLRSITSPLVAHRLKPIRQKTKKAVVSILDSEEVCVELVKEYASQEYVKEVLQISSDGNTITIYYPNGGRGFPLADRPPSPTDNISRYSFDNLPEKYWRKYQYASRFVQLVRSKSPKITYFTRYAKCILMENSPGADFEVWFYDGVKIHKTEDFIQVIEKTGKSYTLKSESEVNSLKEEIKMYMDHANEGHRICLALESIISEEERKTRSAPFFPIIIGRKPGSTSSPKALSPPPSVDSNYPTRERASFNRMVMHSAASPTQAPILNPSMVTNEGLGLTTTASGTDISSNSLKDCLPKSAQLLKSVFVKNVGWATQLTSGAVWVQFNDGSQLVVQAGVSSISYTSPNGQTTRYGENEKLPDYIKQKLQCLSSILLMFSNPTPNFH
Sequence of EGFR (P00533 25-1210, species assumed): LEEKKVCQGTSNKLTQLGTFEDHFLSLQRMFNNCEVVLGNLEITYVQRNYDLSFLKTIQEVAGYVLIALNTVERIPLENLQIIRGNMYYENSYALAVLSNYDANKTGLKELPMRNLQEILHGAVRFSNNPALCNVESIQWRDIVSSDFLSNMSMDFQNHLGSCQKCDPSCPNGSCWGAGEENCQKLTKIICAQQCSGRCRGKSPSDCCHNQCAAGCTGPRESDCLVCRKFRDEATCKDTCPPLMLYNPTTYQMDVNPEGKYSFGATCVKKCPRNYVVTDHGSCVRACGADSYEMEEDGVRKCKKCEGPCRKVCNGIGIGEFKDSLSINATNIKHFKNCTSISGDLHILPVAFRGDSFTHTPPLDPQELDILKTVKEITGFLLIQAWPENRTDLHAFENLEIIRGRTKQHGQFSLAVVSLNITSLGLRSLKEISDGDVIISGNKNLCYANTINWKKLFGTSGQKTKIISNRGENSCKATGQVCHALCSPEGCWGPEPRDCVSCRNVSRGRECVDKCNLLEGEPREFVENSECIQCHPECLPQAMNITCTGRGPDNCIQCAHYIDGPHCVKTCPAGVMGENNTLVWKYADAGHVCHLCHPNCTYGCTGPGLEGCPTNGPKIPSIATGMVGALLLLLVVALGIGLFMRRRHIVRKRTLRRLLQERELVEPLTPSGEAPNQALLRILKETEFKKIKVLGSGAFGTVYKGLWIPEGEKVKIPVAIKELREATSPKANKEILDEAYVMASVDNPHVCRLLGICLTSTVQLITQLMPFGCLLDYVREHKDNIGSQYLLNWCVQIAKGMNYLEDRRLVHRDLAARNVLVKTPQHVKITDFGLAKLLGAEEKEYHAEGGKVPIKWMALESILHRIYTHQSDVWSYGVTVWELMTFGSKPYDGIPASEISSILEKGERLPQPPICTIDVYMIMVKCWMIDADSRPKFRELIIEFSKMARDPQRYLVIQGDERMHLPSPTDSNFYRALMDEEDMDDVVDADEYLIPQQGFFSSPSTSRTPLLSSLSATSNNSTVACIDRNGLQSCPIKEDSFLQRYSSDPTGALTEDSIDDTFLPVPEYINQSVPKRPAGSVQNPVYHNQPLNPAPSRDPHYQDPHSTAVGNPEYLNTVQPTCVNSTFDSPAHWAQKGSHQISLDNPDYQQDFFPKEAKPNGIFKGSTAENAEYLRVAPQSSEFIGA
Sequence of TRKB (Q16620 32-822, species assumed): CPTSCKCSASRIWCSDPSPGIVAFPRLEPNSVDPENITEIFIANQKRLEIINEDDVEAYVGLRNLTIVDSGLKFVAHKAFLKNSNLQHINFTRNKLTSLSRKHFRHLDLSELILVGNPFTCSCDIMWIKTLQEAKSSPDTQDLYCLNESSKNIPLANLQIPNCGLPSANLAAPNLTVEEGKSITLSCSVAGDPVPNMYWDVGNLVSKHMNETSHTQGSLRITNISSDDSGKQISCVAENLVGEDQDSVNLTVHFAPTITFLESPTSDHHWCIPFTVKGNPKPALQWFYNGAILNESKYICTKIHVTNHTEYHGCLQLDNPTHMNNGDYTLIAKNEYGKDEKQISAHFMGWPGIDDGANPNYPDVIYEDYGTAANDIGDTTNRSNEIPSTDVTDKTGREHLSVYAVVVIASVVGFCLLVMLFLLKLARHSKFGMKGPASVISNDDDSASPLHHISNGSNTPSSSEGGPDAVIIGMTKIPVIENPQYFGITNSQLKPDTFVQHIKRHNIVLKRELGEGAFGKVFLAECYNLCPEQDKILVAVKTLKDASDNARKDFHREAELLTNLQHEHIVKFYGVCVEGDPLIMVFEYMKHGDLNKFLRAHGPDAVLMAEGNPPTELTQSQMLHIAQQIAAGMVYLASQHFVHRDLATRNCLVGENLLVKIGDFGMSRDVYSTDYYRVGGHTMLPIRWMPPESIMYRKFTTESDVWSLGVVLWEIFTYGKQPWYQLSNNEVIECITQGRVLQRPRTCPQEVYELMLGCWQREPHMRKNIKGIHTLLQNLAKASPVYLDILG

## COCCOc1cc2ncnc(Oc3ccc(NC(=O)c4c5n(n(-c6ccc(F)cc6)c4=O)CCCC5)cc3F)c2cc1OCCOC [DC621044, N-(4-((6,7-bis(2-methoxyethoxy)quinazolin-4-yl)oxy)-3-fluorophenyl)-1-(4-fluorophenyl)-2-oxo-1,2,4,5,6,7-hexahydropyrazolo[1,5-a]pyridine-3-formamide]
EGFR; the first time
  inhibition at 0.05 µM: 17.9%
EGFR; the second time
  inhibition at 0.05 µM: 18.6%
[1]; 1 nM, 0.001 µM
  c-Met Inhibitory rate (%): 30.6% and 52.3%
[1]; 10 nM, 0.01 µM
  c-Met Inhibitory rate (%): 75.1%
[1]; 10 nM, read-out: c-Met Inhibitory rate (%)
  inhibition at 0.01 µM: 69.4%
[1]; 100 nM, 0.1 µM
  c-Met Inhibitory rate (%): 100%
[1]; 100 nM, read-out: c-Met Inhibitory rate (%)
  inhibition at 0.1 µM: 97.1%
ASK1/MAP3K5; the first time
  inhibition at 0.05 µM: 22.5%
ASK1/MAP3K5; the second time
  inhibition at 0.05 µM: 23.5%
BaF3/TEL-AXL cells; 1 nM, two values per compound, 0.001 µM
  BaF3/TEL-AXL proliferation Inhibitory rate (%): 64.2%
BaF3/TEL-AXL cells; 10 nM, two values per compound, 0.01 µM
  BaF3/TEL-AXL proliferation Inhibitory rate (%): 75.9%
BaF3/TEL-AXL cells; 100 nM, two values per compound, 0.1 µM
  BaF3/TEL-AXL proliferation Inhibitory rate (%): 88.2%
BaF3/TEL-AXL cells; BaF3/TEL-AXL, 1 nM, two values per compound, read-out: BaF3/TEL-AXL proliferation Inhibitory rate (%)
  inhibition at 0.001 µM: 78.9%
BaF3/TEL-AXL cells; BaF3/TEL-AXL, 10 nM, two values per compound, read-out: BaF3/TEL-AXL proliferation Inhibitory rate (%)
  inhibition at 0.01 µM: 79.8%
BaF3/TEL-AXL cells; BaF3/TEL-AXL, 100 nM, two values per compound, read-out: BaF3/TEL-AXL proliferation Inhibitory rate (%)
  inhibition at 0.1 µM: 85.9%
BaF3/TEL-AXL cells; BaF3/TEL-AXL, concentration of 1 nM, read-out: inhibited the proliferation of BaF3/TEL-AXL cells
  inhibition at 0.001 µM: > 70%
TRKB; the first time
  inhibition at 0.05 µM: 52.1%
TRKB; the second time
  inhibition at 0.05 µM: 52.2%
c-MET; the first time
  inhibition at 0.05 µM: 98.6%
c-MET; the second time
  inhibition at 0.05 µM: 99%
369 kinases
  kinase profile selectivity (in words): good selectivity for AXL kinase
TYRO3/SKY; the first time
  inhibition at 0.05 µM: 41%
TYRO3/SKY; the second time
  inhibition at 0.05 µM: 41.2%
RON/MSTIR; the first time
  inhibition at 0.05 µM: 25.9%
RON/MSTIR; the second time
  inhibition at 0.05 µM: 27.2%
FYN; the first time
  inhibition at 0.05 µM: 22.4%
FYN; the second time
  inhibition at 0.05 µM: 27.7%
HIPK4; the first time
  inhibition at 0.05 µM: 77.2%
HIPK4; the second time
  inhibition at 0.05 µM: 77.2%
PLK4/SAK; the first time
  inhibition at 0.05 µM: 27.2%
PLK4/SAK; the second time
  inhibition at 0.05 µM: 29.8%
TRKA; the first time
  inhibition at 0.05 µM: 59.2%
TRKA; the second time
  inhibition at 0.05 µM: 60.3%
[2]
  IC50: 7.6 ± 0.3 nM
[2]; 1 nM, read-out: AXL activity Inhibitory rate(%)
  inhibition at 0.001 µM: 20.7%
[2]; 10 nM, read-out: AXL activity Inhibitory rate(%)
  inhibition at 0.01 µM: 61.2%
[2]; 100 nM, read-out: AXL activity Inhibitory rate(%)
  inhibition at 0.1 µM: 80.7%
TRKC; the first time
  inhibition at 0.05 µM: 23.8%
TRKC; the second time
  inhibition at 0.05 µM: 24.1%
FLT3; the first time
  inhibition at 0.05 µM: 28%
FLT3; the second time
  inhibition at 0.05 µM: 29.3%
DDR1; the first time
  inhibition at 0.05 µM: 64.1%
DDR1; the second time
  inhibition at 0.05 µM: 64.2%
